Results as given in US8828966B2, “Method for treatment of macular degeneration by modulating P2Y12 or P2X7 receptors” (priority 2006, dated 2014).

Legend:
ARPE-19 cells [1] = assay: Lysosomal pH (pHL) with LysoSensor Yellow/Blue, high through-put screen; type: cell-based, human; settings: for effect on pHL, agent alone: cells without other alkalinizing agent, NH4Cl 10 mM, BAF 200 nM, CHQ 20 μM, CFTR-172 10 μM, LDL 10 μg/ml, others not given
Method: Lysosensor Yellow/Blue co-localized with the Lysotracker Red dye in small vesicles, with a distribution consistent with lysosomal origin. Measurements of pHL were performed using a high throughput screening (HTS) protocol to maximize output and minimize variation using ARPE-19 cells in 96 well plates. […] Loading for 5 min. at 23° C. with 5 μM lysosensor, followed by 15 min. for internalization, produced stable and reproducible results.
The ratio was converted to pH by calibrating with KCl buffered to pH 4.0-6.0 in the presence of monensin and nigericin. Calibration indicated a baseline pH of 4.4 to 4.5, supporting lysosomal localization. […] NH4Cl decreased the ratios slightly at 380 nm. Nevertheless, absent the addition of the dye, none of these compounds, or any others, altered the fluorescent signal at 340 or 380 nm, showing a specificity of the measured change to pHL. […] This quantification is necessary to predict the potential effectiveness of acidifying drugs to restore lysosomal enzyme activity.
Extensive trials determined that the optimal response is obtained with 5 minute dye loading and 15 minute post-incubation. […] All reagents were from Sigma Chemical Corp. unless otherwise indicated.
In general, each condition below used 3-12 independent wells per plate, in 3-6 separate plates. As levels from individual plates varied, data was normalized to the mean pHL for control wells from each plate. Fluorescent ratios were converted to pH following calibration performed on each plate as described. Incubation with Lysosensor Yellow/Blue was kept constant and all measurements were performed 15 min after removal of dye from the bath to ensure continuity. Significance was determined with a one-way ANOVA and Tukey post test. Drugs were always tested on control cells to ensure modification of healthy RPE cells was minimal, and cells were not exposed to dye to make sure effects were specific. All background was subtracted from the fluorescence excited at 340 and 380 nm independently before calculation of the ratio.

[2] = NH4Cl 10 mM
Method: Isolation of Lysosomes: ARPE-19 cells were detached with 0.25% trypsin, centrifuged at 1000 rpm for 5 minutes, and resuspended in 0.25M sucrose with 5 mM ATP in 10 mM Tris buffer (pH 7.4 with HCl). After homogenization, samples were spun at 1000×g (10 min). The supernatant was centrifuged (20,000×g, 10 min) and the pellet was resuspended in a 0.25 M sucrose buffer with 8 mM CaCl2 in Tris-HCl buffer (pH 7.4) to lyse mitochondria (15 min, 35° C.). […] After isolation, lysosomes were diluted 1:10 in a 150 mM KCl solution in Tris-HCl (pH 7.4) and pelleted at 25,000×g. The pellet was then resuspended in 5 μM Lysosensor dye. Cells were washed 2× by centrifugation (25,000×g, 15 min), resuspended in test or control solutions including 5 mM MgATP, plated into a 96 well plate (50 μl/well) and the pH was measured as above.

[3] = system: LC3BII and p62 in ARPE-19 cells; assay: Western blot of autophagy markers; type: cell-based, human; settings: Western blot quantification
Text: While the RPE cells must degrade phagocytosed outer segments, they must also degrade and dispose of their own waste material through a process termed autophagy. The ability of P2X7 receptor stimulation to rapidly raise levels of autophagy markers LC3BII and p62 are consistent with the effects of raising lysosomal pH, for they imply that lysosomal alkalinization prevents the RPE cell from degrading material from autopagic vesicles containing p62 or tagged with LC3BII. (See, Kabeya, Y., et al., “LC3, a mammalian homolog of yeast Apg8p, is localized in autophagosome membranes after processing.” EMBO J., 22:[…] (2003); Moscat, J. and Diaz-Meco, M. T. (2009) “p62 at the Crossroads of Autophagy, Apoptosis, and Cancer,” Cell 137:1001-1004 (2009)).

[4] = system: Cathepsin-D activity in ARPE-19 cells; assay: Cathepsin-D activity monitored with a fluorescent reporter; type: cell-based, human; settings: addition of BzATP
Text: In FIG. 13C, it is shown that BzATP reduced lysosomal enzyme activity. […] Cathepsin D is the major lysosomal protease responsible for degrading photoreceptors in the RPE, and thus changes to cathepsin D activity reflect the ability of the lysosomes to successfully degrade (dispose of) phagocytosed outer segments. […] Consequently, by applying exogenous antagonists to the P2X7 and P2Y12 receptors (i.e., P2X7 receptor-antagonist, and/or P2Y12 receptor-antagonist), the resulting pH elevation by endogenously released ATP is inhibited or prevented, thereby enhancing degradation of the metabolic waste by the lysosomes, reducing autofluorescent lipofuscin accumulation, and thus reducing the onset or progression of AMD.

ABCA4−/− mice [5] = assay: Oral ticagrelor in ABCA4-/- mice, RPE autofluorescence; type: in vivo, mouse; settings: 26 month old mice, 12 ug/ml in the water for 4 days, excited with 406 nm laser
Text: Finally, as recorded in the photographic images of FIG. 12F, autofluorescence in untreated ABCA4−/− mice (upper, Con)) were compared with those treated with Brilinta (lower, Bri) in the water.

ABCA4−/− mice [6] = assay: Oral P2Y12 inhibitor in ABCA4-/- mice, lysosomal pH of RPE cells; type: in vivo, mouse; settings: 20 month old mice, 12 ug/ml in the water for 19 days
Method: In this example the selected P2Y12 inhibitor was clopidogrel (commercially available as Plavix), but the invention need not be so limited, and other P2Y12 inhibitors, such as AR-C66096, may be used. The clopidogrel was given orally at 50 mg/kg and the pH measured from RPE cells that were removed 4 hrs later.

other P2 receptors = settings: cited from earlier work
ARPE-19 cells [7] = assay: FACS analysis of autofluorescence (excited at 488 nm); type: cell-based, human; settings: photoreceptor outer segments plus 10 μM chloroquine, 7 days
Text: To maintain a balance between the synthesis, degradation, and subsequent recycling of cellular products there are a variety of autophagic responses, but all involve degradation of intracellular components via the lysosome. Typically, autophagy involves the formation of a membrane around a targeted region of the cell, separating the contents from the rest of the cytoplasm, and then the resultant vesicle fuses with a lysosome and the contents are subsequently degraded.

ARPE-19 cells [8] = assay: Toxicity of A2E to cultured cells; type: cell-based, human; settings: A2E 100 nM, over a period of 1-2 weeks
Method: Holz and colleagues previously reported A2E responses, but the increase in pHL required four weeks of feeding the cells with A2E (14 nM) every 3-4 days, and the A2E was complexed to low-density lipoprotein (LDL; 10 μg/ml) (Holz et al., supra, 1999). […] To reduce the lengthy time course, higher concentrations of A2E (100 nM) were tested, but the cells were killed over a period of 1-2 weeks. Therefore, alternative methods were needed to permit timely testing of the effect of pH on lysosomal activity in the RPE cells.

Compound: Cl.N [NH4Cl]
- effect on pHL, agent alone (ARPE-19 cells [1]): pH was elevated
- 340/380 ratio in isolated lysosomes [2]: increased the 340/380 ratio

Compound: BzATP
- effect on pHL, agent alone (ARPE-19 cells [1]): elevation of the lysosomal pHL
- LC3BII level [3]: rapid increases
- p62 level [3]: rapid increases
- Cathepsin-D activity [4]: visibly decreased

Compound: CCCSc1nc(N[C@@H]2C[C@H]2c2ccc(F)c(F)c2)c2nnn([C@@H]3C[C@H](OCCO)[C@@H](O)[C@H]3O)c2n1 [ticagrelor]
- autofluorescence in RPE cells (ABCA4−/− mice [5]): decreased autofluorescence
- lysosomal pH of RPE cells (ratio of pH sensor) after drug in the water (ABCA4−/− mice [6]): reduced lysosomal pH of RPE cells

Compound: Cl.Clc1cccc(-c2nnnn2Cc2cccnc2)c1Cl [A438079, 3-[[5-(2,3-Dichlorophenyl)-1H-tetrazol-1-yl]methyl]pyridine hydrochloride salt]
- effect on pHL rise by P2X7 agonist BzATP (ARPE-19 cells [1]; cells stimulated with BzATP): prevented this rise
- activity at other P2 receptors (other P2 receptors): devoid of activity at other P2 receptors
- effect on autofluorescence enhanced by POS+CHQ (ARPE-19 cells [7]): reduced this enhanced autofluorescence

Compound: CC(C=CC1=C(C)CCCC1(C)C)=CC=CC(C)=Cc1cc(C=CC=C(C)C=CC2=C(C)CCCC2(C)C)cc[n+]1CCO [A2E, N-retinylidene-N-retinylethanolamine]
- increase in pHL (ARPE-19 cells [1]; ARPE-19 cells, A2E (14 nM) fed for 4 weeks): 0.4 units
- cell killing (ARPE-19 cells [8]): killed
